According to article PMC10927987, “Biochemical characterization, structure-guided mutagenesis, and application of a recombinant D-allulose 3-epimerase from Christensenellaceae bacterium for the biocatalytic production of D-allulose” (Frontiers in Bioengineering and Biotechnology, 2024):

tested on: T1, CbDAE; experiment: epimerization, HPLC-RI, Michaelis-Menten fit; format: biochemical, Christensenellaceae bacterium; details: standard reaction conditions: 1 mM Co2+, 60 °C, 10 min; 5-300 mM substrate
T1 construct: codon-optimized gene in pET-28a(+) (NdeI/EcoRI), E. coli BL21(DE3), Ni-NTA purified, His tag; mutagenesis template given as pET22b-CbDAE
Excerpt: epimerization, HPLC-RI, Michaelis-Menten fit on CbDAE

SMILES	Km [mM]
OCC1(O)OC[C@@H](O)[C@@H](O)[C@H]1O (stereo partly drawn) [D-allulose]	44.9 ± 5.1
OCC1(O)OC[C@@H](O)[C@H](O)[C@H]1O (stereo partly drawn) [D-sorbose]	61.6 ± 4.8
OCC1(O)OC[C@@H](O)[C@H](O)[C@@H]1O (stereo partly drawn) [D-tagatose]	52.7 ± 6.2
